Results reported in the NIST ThermoML archive (doi:10.1021/je201010s).

Legend:
[1] = 101 kPa, Liquid, Vibrating tube method
[2] = refractive index (Na D-line) (dimensionless); settings: 101.33 kPa, Liquid, Standard Abbe refractometry
[3] = wn = mass fraction of the nth substance listed; settings: 101 kPa, Liquid, Vibrating tube method
[4] = refractive index (Na D-line) (dimensionless); wn = mass fraction of the nth substance listed; settings: 101 kPa, Liquid, Standard Abbe refractometry

CCCCn1cc[n+](C)c1.F[B-](F)(F)F [1-butyl-3-methylimidazolium tetrafluoroborate]
Settings	mass density, [1] [kg/m3]	refractive index, [2]
298.15 K	1202.87	1.422
323.15 K	1185.11	1.4155

CCCCn1cc[n+](C)c1.F[B-](F)(F)F [1-butyl-3-methylimidazolium tetrafluoroborate] + CC(C)O
323.15 K
Settings	mass density, [3] [kg/m3]	refractive index, [4]
w2 = 0	1185.11	1.4155
w2 = 0.0089	1180.38	1.4152
w2 = 0.0287	1170.07	1.4143
w2 = 0.0624	1147.36	1.4122
w2 = 0.1053	1122.14	1.4106
w2 = 0.1649	1091.32	1.4077
w2 = 0.2183	1061.8	1.4071
w2 = 0.2719	1031.58	1.406
w2 = 0.324	1012	1.403
w2 = 0.4108	973.34	1.3989
w2 = 0.5167	927.14	1.3948
w2 = 0.5965	901.85	1.391
w2 = 0.6194	888.84	1.3904
w2 = 0.7697	835.46	1.3817
w2 = 0.8372	809.26	1.3749
w2 = 0.9344	778.75	1.3668

CCCCn1cc[n+](C)c1.F[B-](F)(F)F [1-butyl-3-methylimidazolium tetrafluoroborate] + O
298.15 K
Settings	mass density, [3] [kg/m3]	refractive index, [4]
w2 = 0	1202.87	1.422
w2 = 0.0098	1199.53	1.4206
w2 = 0.0167	1196.97	1.4194
w2 = 0.0205	1195.79	1.4191
w2 = 0.029	1193.14	1.418
w2 = 0.0396	1189.89	1.4169
w2 = 0.0585	1184.23	1.4141
w2 = 0.0982	1173.48	1.4094
w2 = 0.154	1159.29	1.4033
w2 = 0.2046	1147.24	1.398
w2 = 0.2517	1136.64	1.3934
w2 = 0.3043	1125.12	1.3883
w2 = 0.3966	1106.01	1.3801
w2 = 0.5061	1084.29	1.3705
w2 = 0.6986	1048.69	1.3549
w2 = 0.8897	1015.75	1.3406

CC(C)O [propan-2-ol]
Settings	mass density, [1] [kg/m3]	refractive index, [2]
298.15 K	780.82	1.3751
323.15 K	758.67	1.3604

CC(C)O [propan-2-ol] + CCCCn1cc[n+](C)c1.F[B-](F)(F)F
323.15 K, w1 = 1
Settings	mass density [kg/m3]	refractive index
[3]	758.67	–
[4]	–	1.3604

CC(C)O [propan-2-ol] + O
298.15 K
Settings	mass density, [3] [kg/m3]	refractive index, [4]
w1 = 0.048	–	1.3365
w1 = 0.0915	982.05	–
w1 = 0.0987	–	1.3412
w1 = 0.1446	–	1.3458
w1 = 0.2009	–	1.3502
w1 = 0.2131	960.29	–
w1 = 0.241	–	1.3536
w1 = 0.2951	–	1.3569
w1 = 0.3299	936.93	–
w1 = 0.3387	–	1.3597
w1 = 0.3921	–	1.3622
w1 = 0.4412	–	1.3645
w1 = 0.4795	906.69	–
w1 = 0.4805	–	1.366
w1 = 0.5009	901.31	–
w1 = 0.5386	–	1.3681
w1 = 0.618	874.45	–
w1 = 0.6205	–	1.3707
w1 = 0.6337	–	1.3711
w1 = 0.6782	–	1.3722
w1 = 0.684	858.73	–
w1 = 0.7452	–	1.3737
w1 = 0.7861	–	1.3744
w1 = 0.7874	834.01	–
w1 = 0.8541	–	1.3752
w1 = 0.8788	811.99	–
w1 = 0.8959	–	1.3756
w1 = 0.8976	807.44	–
w1 = 0.9154	803.01	–
w1 = 0.9311	799.05	–
w1 = 0.9492	–	1.3756
w1 = 0.9502	794.22	–
w1 = 0.9752	787.71	–
w1 = 0.9895	783.8	–
w1 = 1	780.82	1.3751

O [water]
Settings	refractive index
[2], 298.15 K	1.3325

O [water] + CC(C)O
Settings	refractive index
[4], 298.15 K, w2 = 0	1.3325

O [water] + CCCCn1cc[n+](C)c1.F[B-](F)(F)F
Settings	refractive index
[4], 298.15 K, w1 = 1	1.3325
